This is an account of results in the Kinase Knowledgebase extract (Sharma et al. 2016).

One assay has as its target PIK3CA (human) (UniProt P42336). The experiment in a line: Inhibition of PIK3CA Kinase Activity.
The target in another assay is PIK3CD (Human) (UniProt O00329). The experiment in a line: Inhibition of PIK3CD Kinase Activity.
Chain of PIK3CD (Human) (O00329 whole entry, looked up): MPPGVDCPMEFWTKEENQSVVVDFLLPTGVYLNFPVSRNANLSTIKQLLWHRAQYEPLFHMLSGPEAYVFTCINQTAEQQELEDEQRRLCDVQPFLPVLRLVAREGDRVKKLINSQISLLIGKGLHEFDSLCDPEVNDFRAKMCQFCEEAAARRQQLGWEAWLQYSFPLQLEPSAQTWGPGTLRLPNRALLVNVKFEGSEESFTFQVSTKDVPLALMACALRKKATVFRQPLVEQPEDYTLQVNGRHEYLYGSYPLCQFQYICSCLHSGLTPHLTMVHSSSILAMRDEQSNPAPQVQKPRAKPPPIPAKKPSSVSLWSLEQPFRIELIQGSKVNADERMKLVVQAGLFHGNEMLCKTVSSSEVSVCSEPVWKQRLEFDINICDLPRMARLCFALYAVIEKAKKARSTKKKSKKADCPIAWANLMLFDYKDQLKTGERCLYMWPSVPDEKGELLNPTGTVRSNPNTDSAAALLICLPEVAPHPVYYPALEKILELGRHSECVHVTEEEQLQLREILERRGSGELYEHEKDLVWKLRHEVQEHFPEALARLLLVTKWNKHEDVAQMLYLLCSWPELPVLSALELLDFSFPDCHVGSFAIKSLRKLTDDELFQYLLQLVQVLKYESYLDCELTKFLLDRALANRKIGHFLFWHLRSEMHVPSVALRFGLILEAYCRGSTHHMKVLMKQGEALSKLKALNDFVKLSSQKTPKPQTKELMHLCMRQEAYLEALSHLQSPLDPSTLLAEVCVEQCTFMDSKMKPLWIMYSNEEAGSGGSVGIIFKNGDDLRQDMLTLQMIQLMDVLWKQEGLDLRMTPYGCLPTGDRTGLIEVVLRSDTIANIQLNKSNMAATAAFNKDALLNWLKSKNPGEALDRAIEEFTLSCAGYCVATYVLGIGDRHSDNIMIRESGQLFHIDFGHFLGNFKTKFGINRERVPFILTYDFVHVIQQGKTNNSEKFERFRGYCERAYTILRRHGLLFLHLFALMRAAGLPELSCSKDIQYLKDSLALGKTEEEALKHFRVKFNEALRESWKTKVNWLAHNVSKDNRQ

Chain of PIK3CA (human) (P42336 whole entry, looked up): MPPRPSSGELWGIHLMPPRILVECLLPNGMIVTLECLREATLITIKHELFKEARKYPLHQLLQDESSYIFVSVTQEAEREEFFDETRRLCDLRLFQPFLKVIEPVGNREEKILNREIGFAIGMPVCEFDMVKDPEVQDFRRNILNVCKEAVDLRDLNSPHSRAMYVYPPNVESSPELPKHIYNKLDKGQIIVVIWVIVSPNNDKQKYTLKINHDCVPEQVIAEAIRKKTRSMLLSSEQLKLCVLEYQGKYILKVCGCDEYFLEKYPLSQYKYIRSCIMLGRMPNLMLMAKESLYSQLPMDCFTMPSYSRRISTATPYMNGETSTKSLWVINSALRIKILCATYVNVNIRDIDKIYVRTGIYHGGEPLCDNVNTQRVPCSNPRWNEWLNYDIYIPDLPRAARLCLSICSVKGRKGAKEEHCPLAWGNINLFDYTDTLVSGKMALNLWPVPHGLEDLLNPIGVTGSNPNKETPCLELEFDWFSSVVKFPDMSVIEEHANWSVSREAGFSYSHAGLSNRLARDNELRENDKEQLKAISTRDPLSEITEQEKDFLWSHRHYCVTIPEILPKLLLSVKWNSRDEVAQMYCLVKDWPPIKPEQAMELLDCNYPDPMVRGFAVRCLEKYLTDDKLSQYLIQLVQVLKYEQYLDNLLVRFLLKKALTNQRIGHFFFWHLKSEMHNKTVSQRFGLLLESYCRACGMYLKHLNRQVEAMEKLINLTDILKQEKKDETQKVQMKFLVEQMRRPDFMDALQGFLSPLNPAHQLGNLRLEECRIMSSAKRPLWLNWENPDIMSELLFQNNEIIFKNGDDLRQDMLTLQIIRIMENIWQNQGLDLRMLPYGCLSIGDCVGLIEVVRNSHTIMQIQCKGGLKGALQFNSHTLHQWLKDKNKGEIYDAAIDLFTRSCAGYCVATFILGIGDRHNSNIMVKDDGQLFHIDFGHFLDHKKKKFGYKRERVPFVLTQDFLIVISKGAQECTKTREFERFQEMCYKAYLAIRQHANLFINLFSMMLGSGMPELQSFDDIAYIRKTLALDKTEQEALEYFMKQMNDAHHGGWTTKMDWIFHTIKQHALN

As for `CC(=NNS(=O)(=O)c1cc([N+](=O)[O-])ccc1N(C)CCn1ccnc1)c1cnn2ccc(Br)cc12`, the IC50 against PIK3CA (human) worked out at 92 nM.

`CC(=NNS(=O)(=O)c1cc([N+](=O)[O-])ccc1N(C)CCCN1CCOCC1)c1cnn2ccc(Br)cc12`: the IC50 at PIK3CA (human) worked out at 450 nM.

Regarding `CC(=NNS(=O)(=O)c1cc([N+](=O)[O-])ccc1N(C)CCN(C)C)c1cnc2ccc(Br)cn12`, the IC50 against PIK3CA (human) was found to be 330 nM.

With `CC(=NNS(=O)(=O)c1cc([N+](=O)[O-])ccc1C)c1cnn2ccc(C#N)cc12`, the IC50 against PIK3CA (human) stood at 7.3 nM.

`CC(=NN(C)S(=O)(=O)c1cc([N+](=O)[O-])ccc1N(C)CCN1CCCCC1)c1cnn2ccc(C#N)cc12`: the IC50 against PIK3CA (human) turned out to be 240 nM.

For the compound `CC(=NNS(=O)(=O)c1cc([N+](=O)[O-])ccc1C)c1cnn2ccc(Br)cc12.CCCCCC`, the figures for the half-inhibitory concentration (IC50) against PIK3CA (human) and against PIK3CD (Human) were 30 nM and 220 nM, respectively.

On to `CCN(CC)CCN(C)c1ccc([N+](=O)[O-])cc1S(=O)(=O)NN=C(C)c1cnn2ccc(C#N)cc12`, for which the IC50 on PIK3CA (human) came out at 140 nM.

For `CC(=NNS(=O)(=O)c1cc([N+](=O)[O-])ccc1N(C)CCN1CCCCC1)c1cnn2ccc(C#N)cc12`, the IC50 against PIK3CA (human) was 55 nM. Compared with the last compound, the IC50 is about 2.5-fold lower.

For `CC(=NNS(=O)(=O)c1cc([N+](=O)[O-])ccc1N(C)Cc1ccncc1)c1cnn2ccc(Br)cc12`, the IC50 against PIK3CA (human) turned out to be 200 nM.

`CC(=NN(C)S(=O)(=O)c1cc([N+](=O)[O-])ccc1N(C)CCc1ccccn1)c1cnn2ccc(C#N)cc12`: the IC50 against PIK3CA (human) turned out to be 480 nM. This IC50 is about 2.4-fold higher than that of the compound before.

Regarding `CCCCCC.CCN(CC)CCN(C)c1ccc([N+](=O)[O-])cc1S(=O)(=O)NN=C(C)c1cnn2ccc(Br)cc12`, at PIK3CA (human), the IC50 amounted to 230 nM.

As for `CNCCN(C)c1ccc([N+](=O)[O-])cc1S(=O)(=O)NN=C(C)c1cnn2ccc(C#N)cc12`, the IC50 against PIK3CA (human) came to 82 nM; against PIK3CD (Human) it was 390 nM.

The compound `CC(=NNS(=O)(=O)c1cc([N+](=O)[O-])ccc1N(C)CCc1ccccn1)c1cnn2ccc(C#N)cc12` had an IC50 against PIK3CA (human) of 23 nM.

For the compound `CC(=NNS(=O)(=O)c1cc([N+](=O)[O-])ccc1N(C)CCN1CCN(S(C)(=O)=O)CC1)c1cnn2ccc(C#N)cc12`, the IC50 on PIK3CA (human) is 22 nM; at PIK3CD (Human), 220 nM.

As for `CCC(=NNS(=O)(=O)c1cc([N+](=O)[O-])ccc1C)c1cnn2ccc(C#N)cc12`, at PIK3CA (human), the IC50 was 9.8 nM.

Take `CC(=NNS(=O)(=O)c1cc([N+](=O)[O-])ccc1N(C)CCn1ccnc1)c1cnn2ccc(C#N)cc12`: the IC50 against PIK3CA (human) came out at 20 nM; against PIK3CD (Human) it was 860 nM.

As to `CC(=NNS(=O)(=O)c1cc([N+](=O)[O-])ccc1N(C)Cc1ccncc1)c1cnn2ccc(C#N)cc12`, the figures for the IC50 on PIK3CA (human) and on PIK3CD (Human) were 40 nM and 330 nM, respectively.

`CC(=NNS(=O)(=O)c1cc([N+](=O)[O-])ccc1F)c1cnn2ccc(Br)cc12`: the results for the IC50 on PIK3CA (human) and at PIK3CD (Human) were 320 nM and 500 nM, respectively.

For the compound `CC(=NNS(=O)(=O)c1cc([N+](=O)[O-])ccc1N(C)CCc1c[nH]cn1)c1cnn2ccc(C#N)cc12.CCCCCC`, the IC50 on PIK3CA (human) turned out to be 33 nM; against PIK3CD (Human), 170 nM.

The compound `CNCCN(C)c1ccc([N+](=O)[O-])cc1S(=O)(=O)NN=C(C)c1cnn2ccc(Br)cc12` registered an IC50 at PIK3CA (human) of 57 nM.

For the compound `CC(=NNS(=O)(=O)c1cc([N+](=O)[O-])ccc1N(C)CCCN1CCOCC1)c1cnn2ccc(C#N)cc12`, at PIK3CA (human), the IC50 worked out at 330 nM.

`CC(=NNS(=O)(=O)c1cc([N+](=O)[O-])ccc1N(C)CCc1ccncc1)c1cnn2ccc(Br)cc12` had an IC50 on PIK3CA (human) of 44 nM.

As to `Cc1ccc([N+](=O)[O-])cc1S(=O)(=O)NN=C(c1cnn2ccc(C#N)cc12)C(C)C`, the results for the IC50 at PIK3CA (human) and on PIK3CD (Human) were 39 nM and 310 nM, respectively.

Take `CC(=NNS(=O)(=O)c1cc([N+](=O)[O-])ccc1N(C)Cc1ccccn1)c1cnn2ccc(C#N)cc12`: the IC50 against PIK3CA (human) is 4.8 nM; at PIK3CD (Human) it was 11 nM.

`CCN(CC)CCN(C)c1ccc([N+](=O)[O-])cc1S(=O)(=O)N(C)N=C(C)c1cnn2ccc(C#N)cc12`: the IC50 at PIK3CA (human) was found to be 460 nM.

Take `CC(=NNS(=O)(=O)c1cc([N+](=O)[O-])ccc1N(C)CCc1ccncc1)c1cnn2ccc(C#N)cc12`: the IC50 against PIK3CA (human) amounted to 49 nM; on PIK3CD (Human), 420 nM.

Regarding `CC(=NNS(=O)(=O)c1cc([N+](=O)[O-])ccc1N(C)CCN1CCN(S(C)(=O)=O)CC1)c1cnn2ccc(Br)cc12.CCCCCC`, the IC50 against PIK3CA (human) is 42 nM.

At PIK3CA (human), `CC(=NNS(=O)(=O)c1cc([N+](=O)[O-])ccc1N(C)CCc1ccccn1)c1cnn2ccc(Br)cc12` returned an IC50 of 90 nM.

The compound `CC(=NNS(=O)(=O)c1cc([N+](=O)[O-])ccc1F)c1cnc2ccc(Br)cn12` returned an IC50 at PIK3CA (human) of 300 nM.

`CC(=NNS(=O)(=O)c1cc([N+](=O)[O-])ccc1N(C)CCN(C)C)c1cnn2ccc(C#N)cc12.CCCCCC`: the IC50 against PIK3CA (human) came to 51 nM; at PIK3CD (Human), 680 nM.

The compound `CC(=NNS(=O)(=O)c1cc([N+](=O)[O-])ccc1N(C)CCCN(C)C)c1cnn2ccc(C#N)cc12` had an IC50 against PIK3CA (human) of 100 nM.

Take `CC(=NNS(=O)(=O)c1cc([N+](=O)[O-])ccc1N(C)CCc1c[nH]cn1)c1cnn2ccc(Br)cc12`: at PIK3CA (human), the IC50 came out at 160 nM.

On to `CC(=NN(C)S(=O)(=O)c1cc([N+](=O)[O-])ccc1N(C)Cc1ccccn1)c1cnn2ccc(C#N)cc12`, for which the IC50 against PIK3CA (human) was found to be 5.2 nM; at PIK3CD (Human), 580 nM.

Take `CC(=NN(C)S(=O)(=O)c1cc([N+](=O)[O-])ccc1N(C)CCN(C)C)c1cnn2ccc(C#N)cc12`: the IC50 on PIK3CA (human) amounted to 330 nM; against PIK3CD (Human), 660 nM.

Compound `CC(=NNS(=O)(=O)c1cc([N+](=O)[O-])ccc1N(C)CCN)c1cnn2ccc(C#N)cc12.CCCCCC` returned an IC50 on PIK3CA (human) of 340 nM. This counts as sub-micromolar.

Turning to `CC(=NNS(=O)(=O)c1cc([N+](=O)[O-])ccc1N(C)Cc1ccccn1)c1cnn2ccc(Br)cc12`, the IC50 was 7.3 nM at PIK3CA (human) and 230 nM at PIK3CD (Human).

Take `CC(=NNS(=O)(=O)c1cc([N+](=O)[O-])ccc1N(C)Cc1cccnc1)c1cnn2ccc(Br)cc12`: the IC50 against PIK3CA (human) was 53 nM.

By IC50 is commonly meant the midpoint of a concentration-inhibition curve. The low end stands for higher potency, the high end for lower potency.
